# According to ChEMBL document CHEMBL1201862, “PubChem BioAssay data set” (2004):
# Active and inactive are the calls of the source.
# Legend:
# [1] = biological target: Cytochrome P450 2C19 (Homo sapiens, UniProt P33261); test: qHTS Assay for Inhibitors and Substrates of Cytochrome P450 2C19. [Related pubchem assays: 410 ]; assay type: ADME; details: read-out: Potency
# [2] = biological target: Mitogen-activated protein kinase 10 (Homo sapiens, UniProt P53779); test: Dose response biochemical screening assay for inhibitors of c-Jun N-Terminal Kinase 3 (JNK3). [Related pubchem assays: 746 ]
# Chain of Mitogen-activated protein kinase 10 (P53779 whole entry): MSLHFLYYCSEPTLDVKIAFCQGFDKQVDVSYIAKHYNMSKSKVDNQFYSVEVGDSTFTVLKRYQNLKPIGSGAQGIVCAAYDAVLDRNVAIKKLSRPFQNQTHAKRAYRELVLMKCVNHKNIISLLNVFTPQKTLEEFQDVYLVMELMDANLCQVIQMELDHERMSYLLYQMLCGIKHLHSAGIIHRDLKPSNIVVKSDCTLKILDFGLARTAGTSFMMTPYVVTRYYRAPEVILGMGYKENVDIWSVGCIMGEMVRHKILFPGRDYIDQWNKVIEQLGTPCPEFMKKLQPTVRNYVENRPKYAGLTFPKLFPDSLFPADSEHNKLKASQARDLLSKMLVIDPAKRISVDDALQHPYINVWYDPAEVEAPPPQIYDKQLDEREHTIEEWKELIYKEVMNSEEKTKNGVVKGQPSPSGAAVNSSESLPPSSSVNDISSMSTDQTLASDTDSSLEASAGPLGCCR
# [3] = biological target: Nuclear receptor subfamily 5 group A member 2 (Homo sapiens, UniProt O00482); assay type: functional, cell-based;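 also: HEK293T cells transfected with LRH-1 and a StAR promoter luciferase reporter; potency for inhibitors that lower LRH-1 driven reporter light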
# Chain of Nuclear receptor subfamily 5 group A member 2 (O00482 whole entry): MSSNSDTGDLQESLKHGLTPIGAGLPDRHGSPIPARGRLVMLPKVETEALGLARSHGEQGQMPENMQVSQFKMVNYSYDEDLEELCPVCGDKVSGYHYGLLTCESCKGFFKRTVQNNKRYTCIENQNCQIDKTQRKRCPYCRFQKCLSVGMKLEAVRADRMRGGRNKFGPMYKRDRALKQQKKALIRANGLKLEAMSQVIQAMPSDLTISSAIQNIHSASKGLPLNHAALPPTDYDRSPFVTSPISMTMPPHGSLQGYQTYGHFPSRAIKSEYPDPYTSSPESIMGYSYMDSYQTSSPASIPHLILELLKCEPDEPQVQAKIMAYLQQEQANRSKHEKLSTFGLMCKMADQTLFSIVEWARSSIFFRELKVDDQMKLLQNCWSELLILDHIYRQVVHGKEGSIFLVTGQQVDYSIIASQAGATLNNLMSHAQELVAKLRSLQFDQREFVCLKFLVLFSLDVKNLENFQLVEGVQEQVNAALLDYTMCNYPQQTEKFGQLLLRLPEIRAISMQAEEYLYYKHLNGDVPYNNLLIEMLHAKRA
# [4] = biological target: Steroidogenic factor 1 (Homo sapiens, UniProt Q13285); test: Counterscreen for inverse agonists of the liver receptor homolog-1 (LRH-1; NR5A2): Luminescence-based cell-based high throughput dose response assay to identify inverse agonists of the Steroidogenic Factor 1 Nuclear Receptor (SF1; NR5A1).; assay type: functional
# Chain of Steroidogenic factor 1 (Q13285 whole entry): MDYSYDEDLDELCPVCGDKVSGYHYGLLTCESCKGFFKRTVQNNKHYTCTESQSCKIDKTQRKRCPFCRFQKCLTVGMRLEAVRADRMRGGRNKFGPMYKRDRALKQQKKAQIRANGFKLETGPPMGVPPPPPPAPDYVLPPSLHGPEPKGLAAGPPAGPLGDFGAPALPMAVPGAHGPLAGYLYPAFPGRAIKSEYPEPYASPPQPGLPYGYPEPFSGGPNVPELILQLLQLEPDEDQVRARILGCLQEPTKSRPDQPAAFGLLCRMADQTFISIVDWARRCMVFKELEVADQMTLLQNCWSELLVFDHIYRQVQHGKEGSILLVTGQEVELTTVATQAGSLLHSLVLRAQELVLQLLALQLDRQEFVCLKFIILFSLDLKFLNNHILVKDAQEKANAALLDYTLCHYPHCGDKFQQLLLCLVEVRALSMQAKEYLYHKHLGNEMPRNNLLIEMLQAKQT
# [5] = nonselective StAR promoter luciferase inhibitors – cell-based, luminescence, luciferase reporter, counter-screen for LRH-1 inverse agonist project, dose response (AID 651969); assay type: functional
# [6] = biological target: Sphingosine 1-phosphate receptor 2 (Homo sapiens, UniProt O95136); test: Dose Response Cell Based Assay for Agonists of the S1P2 Receptor. [Related pubchem assays: 729, 736, 843 ]; assay type: functional
# Chain of Sphingosine 1-phosphate receptor 2 (O95136 whole entry): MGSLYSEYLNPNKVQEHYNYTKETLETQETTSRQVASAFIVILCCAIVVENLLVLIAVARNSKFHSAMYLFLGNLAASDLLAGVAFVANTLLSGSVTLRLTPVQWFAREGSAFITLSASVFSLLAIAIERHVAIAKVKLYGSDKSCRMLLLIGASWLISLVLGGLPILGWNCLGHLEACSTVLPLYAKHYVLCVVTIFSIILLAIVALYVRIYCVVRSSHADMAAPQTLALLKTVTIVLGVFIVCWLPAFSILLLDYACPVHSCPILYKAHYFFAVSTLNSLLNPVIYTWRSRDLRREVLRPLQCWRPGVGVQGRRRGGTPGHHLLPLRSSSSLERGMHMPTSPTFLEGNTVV
# [7] = biological target: T1, Calpain-2 catalytic subunit (Sus scrofa, UniProt P43367); test: m-calpain protease blockers, concentration series – biochemical, fluorogenic peptide substrate, dose response (AID 1420); assay type: functional
# T1 sequence (P43367 whole entry): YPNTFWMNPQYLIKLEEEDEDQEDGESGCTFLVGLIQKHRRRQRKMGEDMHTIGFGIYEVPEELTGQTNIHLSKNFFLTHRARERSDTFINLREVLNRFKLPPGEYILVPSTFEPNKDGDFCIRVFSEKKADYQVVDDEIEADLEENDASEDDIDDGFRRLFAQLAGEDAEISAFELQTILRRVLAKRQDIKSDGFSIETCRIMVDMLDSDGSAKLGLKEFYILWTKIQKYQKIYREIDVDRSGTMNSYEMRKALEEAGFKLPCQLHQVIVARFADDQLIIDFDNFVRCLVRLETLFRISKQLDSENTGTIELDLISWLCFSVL
# [8] = biological target: Bifunctional protein GlmU (Mycobacterium tuberculosis, UniProt P9WMN3); test: Inhibitors of Mycobacterial Glucosamine-1-phosphate acetyl transferase (GlmU). Secondary screen.; design: species or system Mycobacterium tuberculosis H37Rv
# Chain of Bifunctional protein GlmU (P9WMN3 whole entry): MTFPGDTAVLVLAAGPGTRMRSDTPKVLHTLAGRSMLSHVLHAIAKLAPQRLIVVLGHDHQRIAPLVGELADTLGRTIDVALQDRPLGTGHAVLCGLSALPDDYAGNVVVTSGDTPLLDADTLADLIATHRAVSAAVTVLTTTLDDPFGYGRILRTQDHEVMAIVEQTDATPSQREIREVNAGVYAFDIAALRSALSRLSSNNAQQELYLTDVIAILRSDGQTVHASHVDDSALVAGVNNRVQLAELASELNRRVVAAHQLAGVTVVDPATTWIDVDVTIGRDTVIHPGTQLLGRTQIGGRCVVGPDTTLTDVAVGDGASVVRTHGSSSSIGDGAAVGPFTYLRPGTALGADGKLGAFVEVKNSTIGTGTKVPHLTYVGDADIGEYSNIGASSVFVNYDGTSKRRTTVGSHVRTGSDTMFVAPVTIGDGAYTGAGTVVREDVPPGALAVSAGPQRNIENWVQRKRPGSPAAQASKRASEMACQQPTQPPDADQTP
# [9] = biological target: T2, Caspase-3 (Homo sapiens, UniProt P42574); assay type: functional;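 also: Dose-response selectivity test against caspase-3 for candidate inhibitors of sentrin-specific proteases (SENPs)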
# T2 sequence (P42574 whole entry): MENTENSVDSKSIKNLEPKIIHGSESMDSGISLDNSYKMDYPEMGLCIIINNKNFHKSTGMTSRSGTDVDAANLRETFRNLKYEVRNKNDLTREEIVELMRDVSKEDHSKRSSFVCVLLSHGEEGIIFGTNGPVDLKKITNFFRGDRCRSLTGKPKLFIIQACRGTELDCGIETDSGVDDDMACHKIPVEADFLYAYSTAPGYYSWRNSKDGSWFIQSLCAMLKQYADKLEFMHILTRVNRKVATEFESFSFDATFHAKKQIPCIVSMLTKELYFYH
# [10] = biological target: T3, Sentrin-specific protease 7 (Homo sapiens, UniProt Q9BQF6); assay type: functional;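 also: Luminescence-based dose-response confirmation of ultra-high-throughput screening hits, measuring inhibition of SENP7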
# T3 sequence (Q9BQF6 whole entry): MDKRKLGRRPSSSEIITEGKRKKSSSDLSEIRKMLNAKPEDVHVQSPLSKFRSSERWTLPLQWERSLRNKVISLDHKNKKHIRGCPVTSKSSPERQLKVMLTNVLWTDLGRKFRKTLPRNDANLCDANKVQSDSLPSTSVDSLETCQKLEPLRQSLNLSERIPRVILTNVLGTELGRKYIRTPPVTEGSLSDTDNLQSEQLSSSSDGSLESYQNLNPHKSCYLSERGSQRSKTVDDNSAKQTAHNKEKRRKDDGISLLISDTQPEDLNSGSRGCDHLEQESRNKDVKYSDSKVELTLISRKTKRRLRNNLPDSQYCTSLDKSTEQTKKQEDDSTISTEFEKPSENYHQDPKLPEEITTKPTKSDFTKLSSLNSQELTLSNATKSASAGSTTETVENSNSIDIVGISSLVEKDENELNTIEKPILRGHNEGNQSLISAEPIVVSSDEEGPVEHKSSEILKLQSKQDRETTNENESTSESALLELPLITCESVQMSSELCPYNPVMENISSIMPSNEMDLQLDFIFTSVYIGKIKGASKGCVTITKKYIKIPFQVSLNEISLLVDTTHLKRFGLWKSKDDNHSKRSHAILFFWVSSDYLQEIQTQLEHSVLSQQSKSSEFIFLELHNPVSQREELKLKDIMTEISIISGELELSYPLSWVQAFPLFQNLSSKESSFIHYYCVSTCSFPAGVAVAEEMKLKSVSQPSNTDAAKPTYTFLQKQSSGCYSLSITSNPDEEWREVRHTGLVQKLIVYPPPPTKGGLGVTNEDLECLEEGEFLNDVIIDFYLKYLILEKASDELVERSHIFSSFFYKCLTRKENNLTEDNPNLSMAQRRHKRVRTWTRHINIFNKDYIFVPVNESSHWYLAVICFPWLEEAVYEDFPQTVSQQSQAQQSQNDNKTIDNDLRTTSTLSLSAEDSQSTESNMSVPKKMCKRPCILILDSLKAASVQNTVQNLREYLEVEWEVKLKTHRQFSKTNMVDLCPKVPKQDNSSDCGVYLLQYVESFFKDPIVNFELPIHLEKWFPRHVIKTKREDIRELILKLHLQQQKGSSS
# [11] = biological target: T4, Sentrin-specific protease 6 (Homo sapiens, UniProt Q9GZR1); assay type: functional;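 also: Luminescence-based dose-response confirmatory assay of SENP6 inhibition, following up an ultra-high-throughput screen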
# T4 sequence (Q9GZR1 whole entry): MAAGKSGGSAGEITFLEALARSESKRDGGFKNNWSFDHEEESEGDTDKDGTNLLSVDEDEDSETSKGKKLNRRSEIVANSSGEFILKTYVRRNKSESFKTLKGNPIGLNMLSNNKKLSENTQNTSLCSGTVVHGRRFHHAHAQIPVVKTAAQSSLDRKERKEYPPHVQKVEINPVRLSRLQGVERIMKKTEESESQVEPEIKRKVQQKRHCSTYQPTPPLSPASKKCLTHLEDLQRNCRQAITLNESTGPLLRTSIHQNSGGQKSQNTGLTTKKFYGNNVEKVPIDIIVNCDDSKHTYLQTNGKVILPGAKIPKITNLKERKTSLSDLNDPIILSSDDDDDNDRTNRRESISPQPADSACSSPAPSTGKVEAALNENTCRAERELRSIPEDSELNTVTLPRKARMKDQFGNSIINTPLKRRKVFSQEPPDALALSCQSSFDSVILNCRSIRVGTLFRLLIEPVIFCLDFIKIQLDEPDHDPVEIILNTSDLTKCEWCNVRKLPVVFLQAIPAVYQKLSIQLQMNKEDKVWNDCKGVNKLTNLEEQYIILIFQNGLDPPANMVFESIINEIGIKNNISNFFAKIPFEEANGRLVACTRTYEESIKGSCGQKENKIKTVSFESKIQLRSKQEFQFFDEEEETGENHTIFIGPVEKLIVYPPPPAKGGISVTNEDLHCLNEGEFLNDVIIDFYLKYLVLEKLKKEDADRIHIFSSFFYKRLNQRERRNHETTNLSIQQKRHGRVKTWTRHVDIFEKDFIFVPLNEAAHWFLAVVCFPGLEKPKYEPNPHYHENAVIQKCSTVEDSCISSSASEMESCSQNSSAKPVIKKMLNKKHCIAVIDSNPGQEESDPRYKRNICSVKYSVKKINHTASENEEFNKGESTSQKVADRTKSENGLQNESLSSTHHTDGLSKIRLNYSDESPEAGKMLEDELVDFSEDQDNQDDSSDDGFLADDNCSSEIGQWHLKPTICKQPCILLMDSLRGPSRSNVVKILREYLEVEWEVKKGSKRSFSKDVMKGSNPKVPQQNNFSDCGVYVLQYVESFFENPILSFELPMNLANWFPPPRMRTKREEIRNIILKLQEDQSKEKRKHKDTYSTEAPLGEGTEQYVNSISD
# [12] = biological target: T5, Sentrin-specific protease 8 (Homo sapiens, UniProt Q96LD8); assay type: functional;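 also: luminescence read-out of SENP8 inhibition, dose-response confirmation following an ultra-high-throughput screen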
# T5 sequence (Q96LD8 whole entry): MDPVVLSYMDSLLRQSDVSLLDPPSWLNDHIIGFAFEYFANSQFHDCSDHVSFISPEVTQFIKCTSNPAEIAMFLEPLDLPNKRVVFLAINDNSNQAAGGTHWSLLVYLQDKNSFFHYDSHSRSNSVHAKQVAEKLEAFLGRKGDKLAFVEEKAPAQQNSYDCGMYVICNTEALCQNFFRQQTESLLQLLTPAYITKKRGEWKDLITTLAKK
# [13] = CellTiter-Glo luminescence survival assay, SW480 colon tumor line, concentration-response curve, half-maximal inhibitory concentration (AID 1117338); assay type: functional
# [14] = RKO cell viability reduction, dose response, CellTiter-Glo luminescence (AID 1117322); assay type: functional
# [15] = cytotoxicity toward HCT116 cells – cell-based, CellTiter-Glo luminescence, IC50, dose response (AID 1117332); assay type: functional; details: HCT-116
# [16] = SNU-C1 cell viability reduction, dose response, CellTiter-Glo luminescence (AID 1117323); assay type: functional, cell-based
# [17] = cytotoxicity toward Colo320 cells – cell-based, CellTiter-Glo luminescence, IC50, dose response (AID 1117334); assay type: functional; details: COLO 320
# [18] = cytotoxicity toward HT-29 cells – cell-based, CellTiter-Glo luminescence, IC50, dose response (AID 1117330); assay type: functional
# [19] = Reduced DLD-1 viability, concentration-response, CellTiter-Glo luminescence (AID 1117352); assay type: functional
# [20] = HCT116 cell viability decrease, GSK3B pretreatment – CellTiter-Glo, IC50, dose response (AID 1117339); assay type: functional; details: HCT-116
# Chain of Cytochrome P450 2C19 (P33261 whole entry): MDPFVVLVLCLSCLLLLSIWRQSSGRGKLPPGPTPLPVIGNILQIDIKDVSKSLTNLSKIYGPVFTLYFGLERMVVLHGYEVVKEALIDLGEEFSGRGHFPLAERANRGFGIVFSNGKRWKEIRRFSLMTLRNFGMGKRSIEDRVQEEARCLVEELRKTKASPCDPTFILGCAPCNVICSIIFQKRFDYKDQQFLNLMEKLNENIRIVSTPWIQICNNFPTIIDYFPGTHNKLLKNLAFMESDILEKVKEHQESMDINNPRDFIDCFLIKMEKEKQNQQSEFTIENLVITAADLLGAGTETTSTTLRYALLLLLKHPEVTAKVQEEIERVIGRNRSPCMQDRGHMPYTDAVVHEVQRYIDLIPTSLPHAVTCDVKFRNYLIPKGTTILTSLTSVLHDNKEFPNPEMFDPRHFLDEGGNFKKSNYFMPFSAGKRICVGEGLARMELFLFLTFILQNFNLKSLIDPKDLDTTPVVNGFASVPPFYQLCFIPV
smiles,measurement,setting,value
COc1cccc(NC(=O)/C=C\c2ccc(Cl)cc2)c1,AC50,[1],3.98 µM (inconclusive)
CCn1c(SCC(=O)Nc2ccc(Cl)cc2)nnc1C1CC1,IC50,[2],> 93.1 µM (not active)
same,IC50,[3],35.9 µM (inactive)
same,IC50,[4],6.13 µM (active)
same,IC50,[5],35.9 µM (inactive)
C=CCn1c(N)cc(=O)nc1SCC(=O)Nc1ccccc1,EC50,[6],> 50 µM (not active)
O=C(O)c1cc(C(=O)O)cc(-c2ccc(/C=c3/sc4nc5ccccc5n4c3=O)o2)c1,IC50,[7],22 µM (not active)
same,IC50,[8],34.1 µM (active)
C/C(=N\Cc1ccco1)c1c(C)nn(-c2nc3ccccc3s2)c1O,IC50,[2],> 93.1 µM (not active)
same,IC50,[9],3.72 µM (active)
same,IC50,[10],3.48 µM (active)
same,IC50,[11],9.47 µM (active)
same,IC50,[12],11.5 µM (active)
COc1cc2c(cc1OC)C1=C(C#N)CC/C(=N\C(=O)c3ccc(Cl)cc3)N1CC2,EC50,[6],1.61 µM (active)
O=C1NCCN1CCN1CCC(c2cn(-c3ccc(F)cc3)c3ccc(Cl)cc23)CC1 [SERTINDOLE],IC50,[13],2.81 µM (active)
same,IC50,[14],2.6 µM (active)
same,IC50,[15],2.16 µM (active)
same,IC50,[16],1.43 µM (active)
same,IC50,[17],3.7 µM (active)
same,IC50,[18],2.86 µM (active)
same,IC50,[19],5.62 µM (inactive)
same,IC50,[20],3.52 µM (active)
